In patent US7115664B2, “Peptidomimetic ligands for cellular receptors and ion channels” (Sepracor Inc., priority 2000, dated 2006):

Experiments:
opioid (μ) receptor = opioid (μ) receptor (Homo sapiens, UniProt P35372); assay: Opioid (μ) receptor binding
Source text: Another assay useful in the present invention concerns determining the ability of a ligand to bind to a biological receptor utilizing a technique well known in the art referred to as a radioligand binding assay. This assay accurately determines the specific binding of a radioligand to a targeted receptor through the delineation of its total and nonspecific binding components. Total binding is defined as the amount of radioligand that remains following the rapid separation of the radioligand bound in a receptor preparation (cell homogenates or recombinate receptors) from that which is unbound. The nonspecific binding component is defined as the amount of radioligand that remains following separation of the reaction mixture consisting of receptor, radioligand and an excess of unlabeled ligand. Under this condition, the only radioligand that remains represents that which is bound to components other that receptor. The specific radioligand bound is determined by subtracting the nonspecific from total radioactivity bound. For a specific example of radioligand binding assay for μ-opioid receptor, see Wang, J. B. et al. FEBS Letters 1994, 338, 217.
(§1) The opioid (μ) receptor binding capabilities of compounds described herein were determined according to the procedures outlined by Wang et al. (FEBS Letters 1994, 338, 217). The sodium channel receptor binding capabilities of compounds described herein were determined according to the procedures outlined by Catterall et al. (J. Biol. Chem. 1981, 256, 8922). The calcium channel receptor binding capabilities of compounds described herein were determined according to the procedures outlined by Gould et al. (Proc. Natl. Acad. Sci. USA 1982, 79, 3656), Ehlert et al. (Life Sci. 1982, 30, 2191), Reynolds et al. (J. Pharmacol. Exp. Ther. 1986, 237, 731), Moresco et al. (Neurobiology of Aging 1990, II, 433) and Schoemaker et al. (Eur. J. Pharmacol. 1985, III, 273). The potassium channel receptor binding capabilities of compounds described herein were determined according to the procedures outlined by Taylor et al. (J. Biol. Chem. 1984, 259, 13957), Rehm et al. (Proc. Natl. Acad. Sci. USA 1988, 85, 4919), Vasquez et al. (J. Biol. Chem. 1990, 265, 15564) and Mourre et al. (Brain Research 1986, 382, 239).

sodium channel (site 2) = assay: Sodium channel receptor binding (site 2); details: sodium channel site 2 binding; read-out: Na (site 2) (IC50)
Protocol: as §1

calcium channel (type N) = calcium channel (type N) (Rattus norvegicus, UniProt Q02294); assay: Calcium channel receptor binding, type N; details: read-out: Ca (type N) (IC50)
Protocol: as §1

[1] = biological target: potassium channel [KA], [KV] or [SKCa]; assay: Potassium channel receptor binding; details: read-out: K** (IC50)
Protocol: as §1

Sequence of opioid (μ) receptor (P35372 whole entry): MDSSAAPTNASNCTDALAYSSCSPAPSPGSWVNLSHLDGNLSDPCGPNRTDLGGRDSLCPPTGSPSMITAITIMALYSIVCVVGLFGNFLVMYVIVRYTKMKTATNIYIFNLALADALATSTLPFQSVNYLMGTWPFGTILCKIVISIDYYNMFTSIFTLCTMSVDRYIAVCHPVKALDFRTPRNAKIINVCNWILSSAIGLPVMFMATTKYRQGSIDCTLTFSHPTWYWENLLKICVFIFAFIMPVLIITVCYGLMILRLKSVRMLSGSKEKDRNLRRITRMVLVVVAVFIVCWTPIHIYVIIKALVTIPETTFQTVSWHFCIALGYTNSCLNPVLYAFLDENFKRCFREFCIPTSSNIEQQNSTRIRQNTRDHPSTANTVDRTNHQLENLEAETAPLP
Sequence of calcium channel (type N) (Q02294 whole entry): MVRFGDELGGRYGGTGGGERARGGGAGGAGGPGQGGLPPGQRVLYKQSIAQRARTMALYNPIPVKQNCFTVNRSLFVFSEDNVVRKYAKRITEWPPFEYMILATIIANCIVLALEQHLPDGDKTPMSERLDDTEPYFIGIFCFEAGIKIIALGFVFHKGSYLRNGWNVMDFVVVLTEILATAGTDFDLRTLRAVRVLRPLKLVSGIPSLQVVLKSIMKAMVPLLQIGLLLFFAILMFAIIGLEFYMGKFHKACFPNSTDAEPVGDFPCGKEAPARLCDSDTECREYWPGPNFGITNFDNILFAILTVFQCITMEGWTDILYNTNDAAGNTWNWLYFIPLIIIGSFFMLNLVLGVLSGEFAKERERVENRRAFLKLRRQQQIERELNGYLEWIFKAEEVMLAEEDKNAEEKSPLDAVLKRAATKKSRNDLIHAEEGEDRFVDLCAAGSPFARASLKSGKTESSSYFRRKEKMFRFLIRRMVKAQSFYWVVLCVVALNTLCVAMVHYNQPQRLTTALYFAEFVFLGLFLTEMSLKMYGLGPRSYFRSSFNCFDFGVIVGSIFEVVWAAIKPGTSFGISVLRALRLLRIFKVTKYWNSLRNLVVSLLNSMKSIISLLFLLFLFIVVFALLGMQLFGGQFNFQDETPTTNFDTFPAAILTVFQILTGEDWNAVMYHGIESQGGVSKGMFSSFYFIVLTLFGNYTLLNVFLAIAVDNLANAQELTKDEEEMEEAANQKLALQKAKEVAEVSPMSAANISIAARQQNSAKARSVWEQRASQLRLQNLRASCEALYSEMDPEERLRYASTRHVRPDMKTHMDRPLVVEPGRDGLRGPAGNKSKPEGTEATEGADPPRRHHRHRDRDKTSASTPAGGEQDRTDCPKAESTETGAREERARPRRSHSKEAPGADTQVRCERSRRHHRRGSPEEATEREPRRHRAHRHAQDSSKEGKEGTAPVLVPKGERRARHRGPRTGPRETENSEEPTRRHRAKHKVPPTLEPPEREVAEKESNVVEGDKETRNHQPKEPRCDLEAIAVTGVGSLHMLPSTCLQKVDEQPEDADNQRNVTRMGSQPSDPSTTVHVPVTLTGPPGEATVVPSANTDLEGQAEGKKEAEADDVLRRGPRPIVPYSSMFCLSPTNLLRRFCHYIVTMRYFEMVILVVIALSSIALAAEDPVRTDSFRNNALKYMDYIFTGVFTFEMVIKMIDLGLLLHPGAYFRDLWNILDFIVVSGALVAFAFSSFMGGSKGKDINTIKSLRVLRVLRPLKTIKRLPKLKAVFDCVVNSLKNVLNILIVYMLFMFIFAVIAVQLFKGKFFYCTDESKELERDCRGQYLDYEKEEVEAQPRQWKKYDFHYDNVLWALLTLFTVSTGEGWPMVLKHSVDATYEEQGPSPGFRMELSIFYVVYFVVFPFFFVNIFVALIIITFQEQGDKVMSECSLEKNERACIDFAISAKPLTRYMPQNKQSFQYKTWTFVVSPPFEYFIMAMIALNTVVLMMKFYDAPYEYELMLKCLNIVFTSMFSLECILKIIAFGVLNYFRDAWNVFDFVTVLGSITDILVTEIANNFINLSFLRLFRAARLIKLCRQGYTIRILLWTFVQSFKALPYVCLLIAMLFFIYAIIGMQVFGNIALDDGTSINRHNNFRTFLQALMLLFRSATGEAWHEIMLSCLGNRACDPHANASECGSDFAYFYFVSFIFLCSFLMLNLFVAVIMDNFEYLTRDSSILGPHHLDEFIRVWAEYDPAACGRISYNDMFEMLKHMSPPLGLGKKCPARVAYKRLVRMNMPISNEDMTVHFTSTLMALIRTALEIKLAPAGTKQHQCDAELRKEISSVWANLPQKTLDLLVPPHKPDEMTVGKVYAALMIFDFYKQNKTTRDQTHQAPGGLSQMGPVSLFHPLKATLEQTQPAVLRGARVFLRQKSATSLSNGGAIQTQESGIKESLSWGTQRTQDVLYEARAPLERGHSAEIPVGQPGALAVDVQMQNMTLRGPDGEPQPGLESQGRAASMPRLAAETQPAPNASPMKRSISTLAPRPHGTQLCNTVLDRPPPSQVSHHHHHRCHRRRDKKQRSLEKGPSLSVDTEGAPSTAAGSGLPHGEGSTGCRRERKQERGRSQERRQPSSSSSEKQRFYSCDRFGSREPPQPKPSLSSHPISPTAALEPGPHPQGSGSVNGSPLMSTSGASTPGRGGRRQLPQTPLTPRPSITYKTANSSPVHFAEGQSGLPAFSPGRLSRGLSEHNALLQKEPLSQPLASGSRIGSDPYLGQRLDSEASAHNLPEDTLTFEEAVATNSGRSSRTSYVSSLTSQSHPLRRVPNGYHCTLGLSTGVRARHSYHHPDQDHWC
Sequence of calcium channel (type N) (P54287 whole entry partner): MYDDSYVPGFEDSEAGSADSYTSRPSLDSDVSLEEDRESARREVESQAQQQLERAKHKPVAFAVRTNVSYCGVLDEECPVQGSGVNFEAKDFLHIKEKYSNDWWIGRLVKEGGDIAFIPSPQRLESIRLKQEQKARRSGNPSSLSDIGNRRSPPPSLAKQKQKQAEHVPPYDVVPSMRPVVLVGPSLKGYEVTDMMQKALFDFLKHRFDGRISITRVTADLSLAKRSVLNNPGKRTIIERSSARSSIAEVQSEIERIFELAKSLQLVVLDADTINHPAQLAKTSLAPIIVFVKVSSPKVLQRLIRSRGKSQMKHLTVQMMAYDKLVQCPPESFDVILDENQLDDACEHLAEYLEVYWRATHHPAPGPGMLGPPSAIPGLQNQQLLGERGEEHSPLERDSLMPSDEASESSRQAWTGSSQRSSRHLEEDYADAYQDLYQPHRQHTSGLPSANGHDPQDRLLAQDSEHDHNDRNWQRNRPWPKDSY
Sequence of calcium channel (type N) (P54290 25-944 partner limits assumed): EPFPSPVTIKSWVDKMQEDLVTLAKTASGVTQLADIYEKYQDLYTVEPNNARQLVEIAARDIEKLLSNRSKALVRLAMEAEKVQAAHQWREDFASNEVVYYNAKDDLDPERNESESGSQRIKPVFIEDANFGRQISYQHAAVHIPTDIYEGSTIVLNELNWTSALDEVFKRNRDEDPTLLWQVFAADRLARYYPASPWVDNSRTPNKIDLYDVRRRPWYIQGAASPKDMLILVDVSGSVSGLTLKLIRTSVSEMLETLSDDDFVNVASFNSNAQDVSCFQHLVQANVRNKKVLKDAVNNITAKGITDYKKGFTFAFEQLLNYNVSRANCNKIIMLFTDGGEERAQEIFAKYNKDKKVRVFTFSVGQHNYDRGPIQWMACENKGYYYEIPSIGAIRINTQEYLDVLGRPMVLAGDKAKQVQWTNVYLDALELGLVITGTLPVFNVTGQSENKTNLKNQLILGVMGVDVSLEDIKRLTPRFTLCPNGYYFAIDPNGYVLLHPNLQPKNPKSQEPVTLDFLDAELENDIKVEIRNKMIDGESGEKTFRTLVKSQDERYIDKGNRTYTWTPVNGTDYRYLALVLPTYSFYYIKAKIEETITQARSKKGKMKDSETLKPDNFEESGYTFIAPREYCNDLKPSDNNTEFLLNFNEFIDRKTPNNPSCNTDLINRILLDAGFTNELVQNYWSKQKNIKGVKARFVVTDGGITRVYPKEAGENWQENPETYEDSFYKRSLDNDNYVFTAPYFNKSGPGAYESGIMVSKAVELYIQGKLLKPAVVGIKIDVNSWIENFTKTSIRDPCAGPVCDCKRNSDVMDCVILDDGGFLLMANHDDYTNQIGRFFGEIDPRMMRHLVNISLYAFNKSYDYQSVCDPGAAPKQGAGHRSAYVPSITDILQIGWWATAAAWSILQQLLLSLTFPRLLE
Sequence of calcium channel (type N) (P54290 945-1091 partner limits assumed): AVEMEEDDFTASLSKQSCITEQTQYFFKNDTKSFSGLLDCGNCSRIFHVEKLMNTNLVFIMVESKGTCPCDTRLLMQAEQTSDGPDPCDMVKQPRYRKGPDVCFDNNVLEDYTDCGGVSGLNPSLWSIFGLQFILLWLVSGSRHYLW

SMILES | IC50 (opioid (μ) receptor) [nM] | IC50 (sodium channel (site 2)) [nM] | IC50 (calcium channel (type N)) [nM] | IC50 [1] [nM]
CN(C)CCN(Cc1ccccc1)C(=O)[C@@H](NC(=O)Nc1cccc(C(F)(F)F)c1)C(C)(C)C [Compound 16, N-Benzyl-N-(2-dimethylamino-ethyl)-3,3-dimethyl-2-[3-(3-trifluoromethyl-phenyl)-ureido]-butyramide] | > 1000 | < 1000 | > 1000 | 
CC(C)(C)[C@H](NC(=O)Nc1cccc(C(F)(F)F)c1)C(=O)N[C@H]1CCN(Cc2ccccc2)C1 [Compound 3b, N-(1-Benzyl-pyrrolidin-3-(S)-yl)-3,3-dimethyl-2-(S)-[3-(3-trifluoromethyl-phenyl)-ureido]-butyramide] | < 1000 | < 100 | > 1000 | > 1000
CN(C)C[C@H](Cc1ccccc1)NC(=O)[C@@H](NC(=O)Nc1cccc(C(F)(F)F)c1)C(C)(C)C [Compound 18, N-(1-Benzyl-2-dimethylamino-ethyl)-3,3-dimethyl-2-[3-(3-trifluoromethyl-phenyl)-ureido]-butyramide] | < 100 | < 1000 | > 1000 | > 1000
CN(C(=O)C(NC(=O)Nc1cccc(C(F)(F)F)c1)C(C)(C)C)C1CCN(Cc2ccccc2)C1 (centres unmarked) [Compound 8, N-(1-Benzyl-pyrrolidin-3-yl)-3,3,N-trimethyl-2-[3-(3-trifluoromethyl-phenyl)-ureido]-butyramide] | > 1000 | < 100 | > 1000 | > 1000
CC(C)(C)[C@H](NC(=O)Nc1cc(F)ccc1F)C(=O)N[C@H]1CCN(Cc2ccccc2)C1 [Compound 3c, N-(1-Benzyl-pyrrolidin-3-(S)-yl)-2-(S)-[3-(2,5-difluoro-phenyl)-ureido]-3,3-dimethyl-butyramide] | > 1000 | < 1000 | > 1000 | > 1000
O=C(NC1CCN(Cc2ccccc2)CC1)[C@@H]1Cc2ccccc2CN1C(=O)Nc1ccc(OC(F)(F)F)cc1 [Compound 3f, 3,4Dihydro-1H-isoquinoline-2,3-dicarboxylic acid 3-(S)-[(1-benzyl-piperidin-4-yl)-amide] 2-[(4-trifluoromethoxy-phenyl)-amide]] | > 1000 | < 100 | > 1000 | > 1000
CN(C)CCN(Cc1ccccc1)C(=O)[C@@H]1Cc2ccccc2CN1C(=O)Nc1ccc(OC(F)(F)F)cc1 [Compound 3h, 3,4-Dihydro-1H-isoquinoline-2,3-dicarboxylic acid 3-(S)-[benzyl-(2-dimethylamino-ethyl)-amide] 2-[(4-trifluoromethoxy-phenyl)-amide]] | > 1000 | < 100 | > 1000 | > 1000
CN(CC(NC(=O)Nc1ccc(OC(F)(F)F)cc1)C(C)(C)C)C1CCN(Cc2ccccc2)C1 (centres unmarked) [Compound 11, 1-(1-{[(1-Benzyl-pyrrolidin-3-yl)-methyl-amino]-methyl}-2,2-dimethyl-propyl)-3-(4-trifluoromethoxy-phenyl)-urea] | > 1000 | < 100 | > 1000 | > 1000
CN(C(=O)C(NC(=O)Nc1ccc(OC(F)(F)F)cc1)C(C)(C)C)C1CCN(Cc2ccccc2)C1 (centres unmarked) [Compound 10, N-(1-Benzyl-pyrrolidin-3-yl)-3,3,N-trimethyl-2-[3-(4-trifluoromethoxy-phenyl)-ureido]-butyramide] | > 1000 | < 1000 | > 1000 | > 1000
CC(C)(C)C(NC(=O)Nc1cccc(C(F)(F)F)c1)C(=O)NC(CN)Cc1ccccc1 (centres unmarked) [Compound 4, N-(2-Amino-1-benzyl-ethyl)-3,3-dimethyl-2-[3-(3-trifluoromethyl-phenyl)ureido]-butyramide] | < 100 | < 100 | > 1000 | > 1000
CC(C)(C)[C@H](NC(=O)Nc1cc(F)ccc1F)C(=O)N[C@@H]1CCN(Cc2ccccc2)C1 [Compound 3d, N-(1-Benzyl-pyrrolidin-3-(R)-yl)-2-(S)-[3-(2,5-difluoro-phenyl)-ureido]-3,3-dimethyl-butyramide] | > 1000 | < 1000 | > 1000 | > 1000
CN(C)CCN(Cc1ccccc1)C(=O)[C@@H](NC(=O)Nc1ccc(OC(F)(F)F)cc1)C(C)(C)C [Compound 17, N-Benzyl-N-(2-dimethylamino-ethyl)-3,3-dimethyl-2-[3-(4trifluoromethoxy-phenyl)-ureido]-butyramide] | > 1000 | < 100 | > 1000 | 
CC(C)(C)[C@H](NC(=O)Nc1ccc(OC(F)(F)F)cc1)C(=O)N[C@H]1CCN(Cc2ccccc2)C1 [Compound 19, N-(1-Benzyl-pyrrolidin-3-yl)-3,3-dimethyl-2-[3-(4-trifluoromethoxy-phenyl)-ureido]-butyramide] | > 1000 | < 1000 | > 1000 | 
CC(C)(C)[C@H](NC(=O)Nc1cccc(C(F)(F)F)c1)C(=O)N[C@@H](Cc1ccccc1)C(=O)N1CCNCC1 [Compound 15, N-(1-Benzyl-2-oxo-2-piperazin-1-yl-ethyl)-3,3-dimethyl-2-[3-(3-trifluoromethyl-phenyl) -ureido]-butyramide] | > 1000 | > 1000 | > 1000 | 
O=C(NC1CCN(Cc2ccccc2)CC1)[C@@H]1Cc2ccccc2CN1C(=O)Nc1cccc(C(F)(F)F)c1 [Compound 3e, 3,4-Dihydro-1H-isoquinoline-2,3-dicarboxylic acid 3-(S)-[(1-benzyl-piperidin-4-yl)-amide] 2-[(3-trifluoromethyl-phenyl)-amide]] | > 1000 | < 100 | > 1000 | > 1000
CN(C)CCN(Cc1ccccc1)C(=O)[C@@H]1CCCN1C(=O)Nc1ccc(OC(F)(F)F)cc1 [Compound 22, Pyrrolidine-1,2-dicarboxylic acid 2-[benzyl-(2-dimethylamino-ethyl)-amide] 1-[(4-trifluoromethoxy-phenyl)-amide]] |  | < 1000 | > 1000 | 
CC(C)(C)[C@H](NC(=O)Nc1cccc(C(F)(F)F)c1)C(=O)N[C@@H]1CCN(Cc2ccccc2)C1 [Compound 3a, N-(1-Benzyl-pyrrolidin-3-(R)-yl)-3,3-dimethyl-2-(S)-[3-(3-trifluoromethyl-phenyl)-ureido]-butyramide] | > 1000 | < 1000 | > 1000 | > 1000
CN(CC(NC(=O)Nc1cccc(C(F)(F)F)c1)C(C)(C)C)C1CCN(Cc2ccccc2)C1 (centres unmarked) [Compound 9, 1-(1-{[(1-Benzyl-pyrrolidin-3-yl)-methyl-amino]-methyl}-2,2-dimethyl-propyl)-3-(3-trifluoromethyl-phenyl)-urea] | > 1000 | < 100 | > 1000 | > 1000
CC(C)(C)[C@@H](CN[C@H](CN)Cc1ccccc1)NC(=O)Nc1cccc(C(F)(F)F)c1 [Compound 5, 1-{1-[(2-Amino-1-benzyl-ethylamino)-methyl]-2,2-dimethy-propyl}-3-(3-trifluoromethyl-phenyl)-urea] | > 1000 | < 100 | > 1000 | > 1000
CN(C)CCN(Cc1ccccc1)C(=O)[C@@H]1Cc2ccccc2CN1C(=O)Nc1cccc(C(F)(F)F)c1 [Compound 3g, 3,4-Dihydro-1H-isoquinoline-2,3-dicarboxylic acid 3-(S)-[benzyl-(2-dimethylamino-ethyl)-amide] 2-[(3-trifluoromethyl-phenyl)-amide]] | > 1000 | < 100 | > 1000 | > 1000
